Test results: patent US8859628B2, “Method for preventing, treating and diagnosing disorders of protein aggregation” (priority 2003, dated 2014)

Legend:
[1] = system: TgCRND8 mice; test: Survival census (Kaplan-Meier); type: in vivo, mouse; details: vs untreated TgCRND8
Procedure: Survival Census—The probability of survival was assessed by the Kaplan-Meier technique, computing the probability of survival at every occurrence of death, thus making it suitable for small sample sizes. For the analyses of survival, 35 mice were used for each treatment group. The comparison between treatments was reported using the Tarone-Ware test.

[2] = system: TgCRND8 mice; test: Morris Water Maze, spatial reference memory version, five-day trial paradigm (prevention study); type: in vivo, mouse; details: 6 months of age
Procedure: Age and sex-matched cohorts of TgCRND8 mice and non-transgenic littermates (n=35 in each cohort) were either untreated, or were given a compound of the present invention as indicated below at 30 mg/day/mouse beginning at age of about 6 weeks. The mice were followed for outcome measures cognitive function, brain Aβ levels, brain pathology, and survival at 4 months and 6 months of age.
Two cohorts entered the study at 6 weeks of age and outcomes were analyzed at 4- and 6-months of age. The body weight, coat characteristics and in cage behavior was monitored. All experiments were performed according to the Canadian Council on Animal Care guidelines.
Behavioral tests—After non-spatial pre-training, mice underwent place discrimination training for 5 days with 4 trials per day. Behavioral data was analyzed using a mixed model of factorial analysis of variance (ANOVA) with drug or genotype and training sessions as repeated measure factors.
The cognitive function of TgCRND8 mice was assessed using the spatial reference memory version of the Morris Water Maze using a five-day trial paradigm (FIGS. 1C-1H). […] The improved performance was also not due to nutritional or caloric effects because body weight, activity, and coat condition were not different between treated and untreated cohorts. […] Gender effects were not significant between any treatment group (p=0.85).

[3] = system: TgCRND8 mice; test: Cerebral amyloid plaque burden (anti-Aβ immunostaining, image analysis); type: in vivo, mouse
Procedure: (§1) Cerebral amyloid burden—Brains were removed and one hemisphere was fixed in 4% paraformaldehyde and embedded in paraffin wax in the mid saggital plane. To generate sets of systematic uniform random sections, 5 μm serial sections were collected across the entire hemisphere. Sets of sections at […] intervals were used for analyses (10-14 sections/set). Plaque were identified after antigen retrieval with formic acid, and incubated with primary anti-Aβ antibody (Dako M-0872), followed by secondary antibody (Dako StreptABCcomplex/horseradish kit). End products were visualized with DAB counter-stained with hematoxylin. Amyloid plaque burden was assessed using Leco IA-3001 image analysis software interfaced with Leica microscope and Hitachi KP-M1U CCD video camera. Vascular burden was analyzed similarly and a dissector was used to measure the diameter of affected vessels.
as §1, with “camera.” for “camera. Vascular burden was analyzed similarly and a dissector was used to measure the diameter of affected vessels.”

[4] = molecular target: T1, Aβ42 (Homo sapiens, UniProt P05067); details: cited from earlier work
T1 construct: The importance of residues 1-42 (Aβ42) in Alzheimer's disease was highlighted
T1 sequence (P05067 672-713 limits assumed): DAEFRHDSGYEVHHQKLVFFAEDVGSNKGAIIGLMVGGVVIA

[5] = system: TgCRND8 mice; test: Morris Water Maze, spatial reference memory version, three-day trial paradigm (treatment/reversal study); type: in vivo, mouse; details: 1 month treatment from 5 months of age, three-day paradigm
Procedure: A cohort entered the study at 5 months of age and outcomes were analyzed at 6-months of age. The body weight, coat characteristics and in cage behavior was monitored. All experiments were performed according to the Canadian Council on Animal Care guidelines.
Behavioral Test—Reversal Study—Mice entered the Morris water maze test with a hidden platform on day one without pretraining. Mice were tested for 3 days with six trials per day. On the fourth day, the platform was removed from the pool and each mouse received one 30-s swim probe trial. On the last day the animals underwent a cue test in order to evaluate swimming ability, eye sight and general cognition. The cue test is composed at the platform being placed in a different quadrant than that used for testing and is tagged with a flag. Animals are allowed 60 s to find the platform. […] Behavioural data was analysed using a mixed model of factorial analysis of variance (ANOVA) with drug or genotype and training sessions as repeated measure factors.
The cognitive function of TgCRND8 mice was assessed using the spatial reference memory version of the Morris Water Maze using a three day trial paradigm (FIGS. 4-8).
Behavioural data was analysed using a mixed model of factorial analysis of variance (ANOVA) with drug and genotype as between subject variables and training sessions as within subject variable.
In these experiments, the dosage and oral administration of compounds, and the behavioral and neurochemical assays were the same as those employed in the above treatment experiments.

[6] = system: TgCRND8 mice; test: Cerebral Aβ content (Aβ40 and Aβ42 kits on hemi-brain homogenates); type: in vivo, mouse; design: Total Aβ: unit not given here
Procedure: (§2) Plasma and Cerebral Aβ Content—Hemi-brain samples were homogenized in a buffered sucrose solution, followed by either 0.4% diethylamine/100 mM NaCl for soluble Aβ levels or cold formic acid for the isolation of total Aβ. After neutralization the samples were diluted and analyzed for Aβ40 and Aβ42 using commercially available kits (BIOSOURCE International). Each hemisphere was analyzed in triplicate with the mean±SEM reported. Western blot analyses were performed on all fractions using urea gels for Aβ species analyses. Aβ was detected using 6E10 (BIOSOURCE International) and Enhanced Chemiluminenscence (Amersham).
as §2, with “reported.” for “reported. Western blot analyses were performed on all fractions using urea gels for Aβ species analyses. Aβ was detected using 6E10 (BIOSOURCE International) and Enhanced Chemiluminenscence (Amersham).”

[7] = system: TgCRND8 mice; test: Plasma Aβ levels; type: in vivo, mouse
Procedure: as §2
as §2, with “reported.” for “reported. Western blot analyses were performed on all fractions using urea gels for Aβ species analyses. Aβ was detected using 6E10 (BIOSOURCE International) and Enhanced Chemiluminenscence (Amersham).”

[8] = system: AD patients; details: human, in vivo; cited from earlier work
[9] = 1 month treatment from 5 months of age
[10] = 1 month treatment, 30 mg/mouse/day from 5 months, analyzed at 6 months of age
[11] = 4 month prevention, 30 mg/mouse/day from 6 weeks of age
[12] = 6 month prevention, 30 mg/mouse/day from 6 weeks of age

O[C@H]1[C@H](O)[C@@H](O)[C@H](O)[C@@H](O)[C@H]1O [Myo-Inositol, myo-inositol, reference compound]
effect on survival of TgCRND8 mice [1]: did not affect overall survival significantly | cognitive function, treated vs untreated TgCRND8 mice (words) [2]: did not alter cognitive function | plaque burden vs untreated [3, 9]: did not affect the plaque burden or Aβ load | Plaque Area [3, 10]: 469968 ± 35664 μm^2 | Plaque Count [3, 10]: 1324 ± 69 | Total Plaque Area/Total Brain Area [3, 10]: 0.153 ± 0.088% | Plaque Area [3, 11]: 91902 ± 7453 μm^2 | Plaque Count [3, 11]: 649 ± 50 | Total Plaque Area/Total Brain Area [3, 11]: 0.023 ± 0.004% | Plaque Area [3, 12]: 400013 ± 19638 μm^2 | Plaque Count [3, 12]: 927 ± 78 | Total Plaque Area/Total Brain Area [3, 12]: 0.100 ± 0.005% | stabilization of Aβ42 micelle [4]: stabilizes a small micelle of Aβ42 | cognitive function, treated TgCRND8 mice vs non-Tg littermates (words) [5]: significantly different from treated non-Tg littermates | Aβ load vs untreated [6, 9]: did not affect the plaque burden or Aβ load | Total Aβ [6, 10]: 20490 ± 526 | Total Aβ [6, 11]: 4969 ± 434 | Total Aβ [6, 12]: 17489 ± 354 | Plasma Aβ Levels ([7]; 1 month treatment): 2110 ± 174 pg/mL | effect on plasma Aβ levels in comparison to untreated (words) [7, 9]: Neither myo-inositol, epi-inositol nor scyllo-inositol treatment had any effect on plasma Aβ levels | Plasma Aβ Levels ([7]; 4 month prevention): 942 ± 30 pg/mL | Plasma Aβ Levels ([7]; 6 month prevention): 969 ± 67 pg/mL

O[C@H]1[C@H](O)[C@@H](O)[C@H](O)[C@@H](O)[C@H]1O [inositol]
CAMCOG subscales orientation and language [8]: did show significant improvement
